{"source": "patent US5912161A", "about": "“Enzymes for the production of 2-keto-L-gulonic acid” (priority 1996, dated 1999)", "key": {"[1]": {"target": "T1, Corynebacterium sp. (ATCC 31090) 2,5-DKG reductase A, wild type, SEQ ID NO:1 (Corynebacterium sp., UniProt P06632)", "T1 construct": "made in house; host or cells: Acetobacter cerinus", "assay": "Kinetic characterization of purified wild-type 2,5-DKG reductase A (NADPH oxidation at 340 nm)", "assay_type": "biochemical", "details": "wild-type enzyme, 50 mM tris, pH 7.0, 0.2 mM NADPH, 25° C.", "procedure": "(§1) The preparations of wild-type and mutant Q192R 2,5-DKG reductase A enzymes were characterized kinetically as to their ability to reduce the substrate 2,5-DKG to 2-KLG. Assays were done in 1 ml total volume of 50 mM tris, pH 7.0, containing 0.2 mM NADPH, a constant amount of enzyme ([…]) and amounts of substrate varying from 2 to 14 mM. The assays were done at 25° C., and the rate of substrate reduction was measured spectrophotometrically by measuring the loss of absorbance at 340 nm wavelength (which is indicative of the oxidation of the cofactor NADPH to NADP+).\n(§2) The data were analyzed according to the well-known Michaelis equation to determine the kinetic parameters Vmax and Km using the Enzfit software package (Biosoft, Cambridge, UK) on a Epson desktop computer."}, "[2]": {"target": "T2, Corynebacterium sp. 2,5-DKG reductase A mutant Q192R (arginine for glutamine at position 192) (Corynebacterium sp., UniProt P06632, Q192R)", "T2 construct": "made in house; host or cells: Acetobacter cerinus", "T2 sequence (P06632 whole entry Q192R)": "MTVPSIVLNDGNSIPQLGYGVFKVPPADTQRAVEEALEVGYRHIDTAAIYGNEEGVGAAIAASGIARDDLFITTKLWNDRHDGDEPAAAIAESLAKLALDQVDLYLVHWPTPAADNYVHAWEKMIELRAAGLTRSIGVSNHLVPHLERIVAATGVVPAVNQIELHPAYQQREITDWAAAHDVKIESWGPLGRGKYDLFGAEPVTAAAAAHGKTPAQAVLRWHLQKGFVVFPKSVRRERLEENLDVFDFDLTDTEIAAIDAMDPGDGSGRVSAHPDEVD", "assay": "Kinetic characterization of purified mutant Q192R 2,5-DKG reductase A (NADPH oxidation at 340 nm)", "assay_type": "biochemical", "details": "50 mM tris, pH 7.0, 0.2 mM NADPH, 25° C.", "procedure": "as §1, §2"}}}
{"compound": "O=C(O)C(=O)[C@@H](O)[C@H](O)C(=O)CO", "note": "[2,5-DKG, 2,5-diketo-D-gluconic acid]", "values": [{"measurement": "specificity constant (kcat/Km)", "setting": "[1]", "value": 140, "unit": "M⁻¹ s⁻¹"}, {"measurement": "Vmax for the 2,5-DKG substrate", "setting": "[1]; substrate 2 to 14 mM", "value": "7.8 μmoles per minute per milligram of protein"}, {"measurement": "Km", "setting": "[1]; substrate 2 to 14 mM, read-out: Km or Michaelis constant", "value": 28, "unit": "mM"}, {"measurement": "specificity constant (kcat/Km)", "setting": "[2]", "value": 335, "unit": "M⁻¹ s⁻¹"}, {"measurement": "Km", "setting": "[2]; substrate 2 to 14 mM", "value": 21, "unit": "mM"}, {"measurement": "Vmax for the 2,5-DKG substrate", "setting": "[2]; substrate 2 to 14 mM", "value": "14.0 μmoles per minute per milligram of protein"}]}
